Each block holds one compound with its values, some of them ahead of it.
Key:
[1] = system: blood pressure and heart rate of normal rabbit; experiment: Measurement of blood pressure and heart rate of normal rabbit; assay type: in vivo; conditions: for effect on circulatory system: at the dose exhibiting efficacy on the knee cartilage defect model, comparison of blood concentrations of Compound A
Description: Compound A acts on circulatory system and affects on blood pressure and heart rate.
Blood pressure and heart rate were measured by the following method using female Japanese white domestic rabbit. An animal was retained in dorsal position on an operation table on a measurement day. After the hair of right femur area was removed, a local anesthetic was given by administering an appropriate amount of lidocaine injection. The skin and muscle was incised to expose femur artery and vein, and a catheter (manufactured by Atom Medical Corporation) filled with saline containing heparin (about 10 units/mL) beforehand was placed in the right femur artery.
After retaining the rabbit in a rabbit blood sampling box (manufactured by NATSUME SEISAKUSHO CO LTD.), the catheter was connected to a pressure transducer (DX-100: manufactured by NIHON KOHDEN CORPORATION) to measure blood pressure with a strain pressure amplifier (AP-641G: manufactured by NIHON KOHDEN CORPORATION) and heart rate with an instantaneous heart rate counter (AT-601G: manufactured by NIHON KOHDEN CORPORATION). Blood pressure and waveform of heartbeat were recorded by a recorder (WR3701: manufactured by Graphtech Corporation). Measurement was conducted under awake condition after confirming blood pressure and heart rate became stable.
(§1) Compound A was administered cumulatively through right auricular vein with a syringe pump (manufactured by TERUMO CORPORATION) at 0 (medium: saline), 100, 300 and 1000 ng/kg/min (administration volume: 1 mL/kg/h). Each dose was administered for more than 60 minutes and blood was collected from left auricular vein 60 minutes after the administration started. Blood was collected with a 1 mL syringe with a needle of […] treated with heparin (about 10 units/mL) beforehand. The collected blood was centrifuged at 4° C. 13,500 g for 5 minutes and the obtained supernatant (plasma) was stored at […] to be provided for the measurement of blood concentration of Compound A.
Increase or decrease ratio of mean blood pressure and heart rate at 5, 10, 15, 20, 30, 40, 50 and 60 minutes after the administration started were calculated based on the values of pre-administration of each subject. Maximum change of blood pressure and heart rate between before and after the administration of Test Compounds was evaluated.

[2] = In vitro hydrolysis test in rabbit plasma (release of Compound A, LC/MS/MS); assay type: in vitro ADME; conditions: 37° C.
Description: The particles were retained inside articular cavity after intra-articular administration. The sustained period of active form inside articular cavity changes depending on hydrolysis period of a test compound. Therefore, the hydrolysis period of a test compound was evaluated and set as an indicator of sustained release of the active form.
Various test compounds were dissolved in dimethylsulfoxide, so that the concentration of the solution calculated in Compound A becomes 0.5 mg/mL. The solution (10 μL) was added to 0.5 mL of rabbit plasma and incubated at 37° C. in water bath. 50 μL of the solution was sampled 0, 1, 3, 8, 24, 30, 48 and 72 minutes after the incubation and the concentration of Compound A in sample was determined.
After 50 μL of the solution was sampled in a polyethylene tube, 10 μL of deuterium-labeled Compound A as internal standard and 2 mL of acetonitrile were added, followed by stirring. After centrifugation, 100 μL of the supernatant was sampled in a polyethylene tube and 900 μL of acetonitrile was added thereto, followed by stirring. After filtration, the supernatant was measured by LC/MS/MS and the 50% hydrolysis time was calculated.

[3] = system: knee cartilage defect model; experiment: Evaluation of cartilage tissue score in knee cartilage defect model; assay type: in vivo; conditions: rabbit, intra-articular, bi-weekly, 6 times; vs vehicle, Steel test
Description: Knee cartilage defect model was prepared by the following method. Female Japanese white domestic rabbit (2.5-3.5 kg) was anesthetized by the administration of sodium pentobarbital (30 mg/kg) through ear vein. The hair around knee articulations of both hind legs was removed and disinfected with iodine tincture. After the incision of the skin of an inert right hind leg, the boundary between patella ligament and articular capsule was incised in dorsal position. Patella was dislocated outward to expose trochlea femoris largely and medial condyle of femur was drilled with a dental drill to prepare small hole (diameter: 4 mm, depth: about 2 mm). The surgical incision was sutured and the surgical site was disinfected with iodine tincture. Femur of a left knee or both knees of pseudo-operation group was only exposed by the same operation without preparing small hole. To avoid infection disease, 100,000 units of benzylpenicilline procaine/125 mg titers of dihydrostreptomycin sulfate/I mg of procaine hydrochloride per rabbit was administered in gluteal muscle. A test compound (12-200 μg/knee, calculated in Compound A which is active form of test compounds) and its medium (5% glucose solution containing 0.05% Tween 80) were administered inside articular cavity of right knee of rabbit at bi-weekly intervals, 6 times for total, and from a week after operation. […]

[4] = Blood concentration of Compound A during continuous intravenous administration to normal rabbit; assay type: in vivo; conditions: female, Japanese white, plasma, 60 minutes after administration started
Description: as §1

[5] = Particle forming: mean particle diameter (Dv) and particle distribution (PDI) of suspensions by laser diffraction; assay type: physicochemical; conditions: 5% glucose solution containing 0.05% Tween 80
Description: In the specification, the mean particle diameter means the mean particle diameter measured by a laser diffraction/scattering method. In the specification, the mean particle diameter is measured by a laser diffraction grain size distribution measuring apparatus (SALD-2100: manufactured by Shimadzu Corp.). In terms of mean particle diameter, various values such as volume mean diameter, surface mean diameter, median diameter and the like are used as an indicator of mean particle diameter, and in the specification, volume mean diameter (Dv) is used as a mean particle diameter.
In addition, a particle to be injected inside articular cavity is preferably a particle with a mean particle diameter with less variance and uniform size. The variance of mean particle diameter can be evaluated by measuring particle size distribution and the particle size distribution can be measured by a laser diffraction grain size distribution measuring apparatus as well as a mean particle diameter. […] In the description, PDI value and Dn was measured by a laser diffraction grain size distribution measuring apparatus (SALD-2100: manufactured by Shimadzu Corp.).
To distilled water, Compound 4-11 dissolved in ethanol was added slowly, 5% glucose solution and 5% glucose solution containing 0.05% Tween 80 with stirring. […] The quantity of each component is as follows, […]

[6] = rabbit, intravenous, 1000 ng/kg/min

Time of 50% hydrolysis [2]: 10.6 days
SMILES: CCCCCCCCCCCCCCCOc1cccc(C(=O)OCCOC(=O)CCC/C=C\C[C@@H]2[C@@H](/C=C/C[C@H](O)C3(CC)CCC3)[C@H](O)C[C@H]2Cl)c1 [Compound 4-1, 2-{[(5Z)-7-{(1R,2R,3R,5R)-5-chloro-2-[(1E,4S)-4-(1-ethylcyclobutyl)-4-hydroxy-1-buten-1-yl]-3-hydroxycyclopentyl}-5-heptenoyl]oxy}ethyl 3-(pentadecyloxy)benzoate]
effect on circulatory system [1]: hardly affects on circulatory system

Time of 50% hydrolysis [2]: 7.3 days
SMILES: CCCCCCCCCCCCCCCOc1ccc(C(=O)OCCOC(=O)CCC/C=C\C[C@@H]2[C@@H](/C=C/C[C@H](O)C3(CC)CCC3)[C@H](O)C[C@H]2Cl)cc1 [Compound 4-11, 2-{[(5Z)-7-{(1R,2R,3R,5R)-5-chloro-2-[(1E,4S)-4-(1-ethylcyclobutyl)-4-hydroxy-1-buten-1-yl]-3-hydroxycyclopentyl}-5-heptenoyl]oxy}ethyl 4-(pentadecyloxy)benzoate]
effect on circulatory system [1]: hardly affects on circulatory system

Time of 50% hydrolysis [2]: 7.8 days
SMILES: CCCCCCCCCCCCCCCCc1ccc(C(=O)OCCCOC(=O)CCC/C=C\C[C@@H]2[C@@H](/C=C/C[C@H](O)C3(CC)CCC3)[C@H](O)C[C@H]2Cl)cc1 [Compound 6-4, 3-{[(5Z)-7-{(1R,2R,3R,5R)-5-chloro-2-[(1E,4S)-4-(1-ethylcyclobutyl)-4-hydroxy-1-buten-1-yl]-3-hydroxycyclopentyl}-5-heptenoyl]oxy}propyl 4-hexadecylbenzoate]

Second part, the compound before the results:

SMILES: CCCCCCCCCCCCCCCC#CCOC(=O)CCC/C=C\C[C@@H]1[C@@H](/C=C/C[C@H](O)C2(CC)CCC2)[C@H](O)C[C@H]1Cl [Compound 19, 2-octadecyn-1-yl(5Z)-7-{(1R,2R,3R,5R)-5-chloro-2-[(1E,4S)-4-(1-ethylcyclobutyl), 4-hydroxy-1-buten-1-yl]-3-hydroxycyclopentyl}-5-heptenoate]
cartilage tissue score [3]: significantly improved
effect on circulatory system [1]: hardly affects on circulatory system
Time of 50% hydrolysis [2]: 26.2 days

SMILES: CCC(CCCCl)[C@@H](O)C/C=C/[C@@H]1[C@@H](C/C=C\CCCC(=O)O)[C@H](Cl)C[C@H]1O (stereo partly drawn) [Compound A, (5Z)-7-{(1R,2R,3R,5R)-5-chloro-2-[(1E,4S)-4-(1-ethylchlorobutyl)-4-hydroxy-1-butenyl]-3-hydroxycyclopentyl}-5-heptenoic acid]
blood concentration that does not affect blood pressure ([1]; rabbit): ≤ 5.9 ng/mL
blood concentration that does not affect heart rate ([1]; rabbit): ≤ 2.0 ng/mL
increase of heart rate at maximum ([1]; rabbit, intravenous, 100 ng/kg/min): about 5%
increase of heart rate ([1]; rabbit, intravenous, 300 ng/kg/min): 15%
decrease of blood pressure [1, 6]: 16 mmHg
increase of heart rate [1, 6]: 20%
decrease of blood pressure at maximum ([1]; rabbit, intravenous, 100 and 300 ng/kg/min): ≤ 5 mmHg
concentration at 60 min ([4]; continuous intravenous 100 ng/kg/min): 2 ng/mL
concentration at 60 min ([4]; continuous intravenous 300 ng/kg/min): 5.9 ng/mL
concentration at 60 min ([4]; continuous intravenous 1000 ng/kg/min): 24.3 ng/mL

SMILES: CCCCCCCCCCCCCCCCCC[N+](C)(C)CCOC(=O)CCC/C=C\C[C@@H]1[C@@H](/C=C/C[C@H](O)C2(CC)CCC2)[C@H](O)C[C@H]1Cl.[Br-] [Reference Example 3, N-(2-{[(5Z)-7-{(1R,2R,3R,5R)-5-chloro-2-[(1E,4S)-4-(1-ethylcyclobutyl)-4-hydroxy-1-buten-1-yl]-3-hydroxycyclopentyl}-5-heptenoyl]oxy}ethyl)-N,N-di methyl-octadecyl ammonium bromide]
particle forming in dispersion medium [5]: did not form a particle
